The record followed here is PubChem BioAssay (NCI).

Some test systems named below: CAKI-1 renal; COLO 205 colon; HT29 colon; IGROV1 ovarian; MOLT-4 leukemia; OVCAR-3 ovarian; SF-539 CNS; SK-MEL-2 melanoma; SK-MEL-28 melanoma; SK-MEL-5 melanoma.
Common to all, as to assay: NCI tumour cell line growth inhibition, 48 h

The structures appear in SMILES notation. Where “and” joins values, the source holds several entries; their conditions need not be identical. Equal values may be shown once.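 Cells were grown in 96-well plates and exposed to each compound for 48 hours at five concentrations; endpoints were interpolated linearly between bracketing concentrations, or set to the highest concentration if not reached. At the GI50, growth is halved. Definition used: TGI = concentration required for complete inhibition of growth.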

For the molecule `COc1cc2c(Oc3ccc(NC(=O)C4(C(=O)Nc5ccc(F)cc5)CC4)cc3F)ccnc2cc1OCCCN1CCOCC1`, the GI50 was 0.547 µM and 0.768 µM with CAKI-1 renal; 0.281 µM and 0.308 µM with COLO 205 colon; 0.387 µM in the test with HT29 colon; 1.31 µM and 0.645 µM in the test on IGROV1 ovarian; 0.573 µM and 0.547 µM in the test on MOLT-4 leukemia; 1.46 µM and 2.25 µM with OVCAR-3 ovarian. Moreover, the GI50 is 0.288 µM and 0.456 µM in the test with SF-539 CNS; 1.44 µM and 1.63 µM in the test on SK-MEL-2 melanoma; 1.12 µM and 1.25 µM in the test on SK-MEL-28 melanoma; 1.37 µM and 1.39 µM in the test with SK-MEL-5 melanoma. For the same molecule, the TGI is 1.97 µM and > 4.86 µM with CAKI-1 renal; 0.641 µM and 0.934 µM in the test on COLO 205 colon; 1.8 µM in the test with HT29 colon; 8.49 µM and 2.74 µM with IGROV1 ovarian; > 24.9 µM and 5.45 µM in the test with MOLT-4 leukemia; 3.36 µM and > 10 µM with OVCAR-3 ovarian. Moreover, the TGI was 1.65 µM and 1.67 µM in the test with SF-539 CNS; 2.93 µM and 3.74 µM in the test on SK-MEL-2 melanoma; 2.47 µM and 2.69 µM in the test on SK-MEL-28 melanoma; 2.68 µM and 2.71 µM with SK-MEL-5 melanoma.
Turning to `C[C@H]1CCC/C=C/C2CC(OC(=O)CN(C)C)CC2C(OC(=O)CN(C)C)/C=C/C(=O)O1` (stereo partly drawn), the GI50 in the test on CAKI-1 renal is 0.38 µM; in the test with COLO 205 colon it was 0.246 µM; in the test with HT29 colon it was 0.342 µM; with IGROV1 ovarian, 1.71 µM; with MOLT-4 leukemia it was 0.357 µM; in the test on OVCAR-3 ovarian, 0.428 µM. For the same molecule, the GI50 in the test with SF-539 CNS was 0.531 µM; with SK-MEL-2 melanoma, 0.224 µM; in the test with SK-MEL-28 melanoma, 0.472 µM; with SK-MEL-5 melanoma, 0.0982 µM. The TGI with CAKI-1 renal was 7.69 µM; in the test on COLO 205 colon it was 3.6 µM; in the test on HT29 colon, 3.8 µM; in the test on IGROV1 ovarian, 34.4 µM; in the test with MOLT-4 leukemia it was 5.44 µM; in the test on OVCAR-3 ovarian, 3.2 µM. The TGI with SF-539 CNS was > 100 µM; in the test with SK-MEL-2 melanoma it was 3.79 µM; in the test on SK-MEL-28 melanoma, > 100 µM; in the test on SK-MEL-5 melanoma, 0.243 µM.
As to `O=C(CCc1nc(=S)[nH][nH]1)Nc1cc(Cl)ccc1Cl`, the TGI in the test on CAKI-1 renal, in the test with COLO 205 colon, in the test with HT29 colon, with IGROV1 ovarian, in the test on MOLT-4 leukemia and in the test with OVCAR-3 ovarian was > 100 µM throughout. The TGI in the test on SF-539 CNS, in the test on SK-MEL-2 melanoma, with SK-MEL-28 melanoma and in the test with SK-MEL-5 melanoma was > 100 µM in each case.
With `C[C@@H]1CC[C@H]2[C@@H](C)C(O)O[C@@H]3O[C@]4(C)CC[C@@H]1[C@]32OO4` (stereo partly drawn), the GI50 is 0.758 µM in the test on CAKI-1 renal; 0.718 µM in the test with COLO 205 colon; 0.634 µM in the test on HT29 colon; 1.13 µM in the test with IGROV1 ovarian; 0.34 µM in the test on MOLT-4 leukemia; 0.431 µM with OVCAR-3 ovarian. The GI50 was 0.868 µM in the test with SF-539 CNS, 2 µM in the test on SK-MEL-2 melanoma, 3.23 µM in the test with SK-MEL-28 melanoma and 0.53 µM in the test with SK-MEL-5 melanoma. Also, the TGI with CAKI-1 renal was > 47.2 µM; in the test on COLO 205 colon it was 3 µM; in the test with HT29 colon it was 13.5 µM; in the test on IGROV1 ovarian, 5.23 µM; with MOLT-4 leukemia it was 10.5 µM; in the test on OVCAR-3 ovarian it was 15.6 µM. The TGI in the test on SF-539 CNS is 14.2 µM; with SK-MEL-2 melanoma it was 15.2 µM; with SK-MEL-28 melanoma, > 74.5 µM; in the test with SK-MEL-5 melanoma, 16.6 µM.
Turning to `Cc1ccc2c(c1)[n+](=O)c(C(=O)c1cccs1)c(C(F)(F)F)n2[O-]`, the GI50 in the test with CAKI-1 renal was 0.856 µM and 0.395 µM; in the test with COLO 205 colon it was 1.47 µM and 0.842 µM; in the test with HT29 colon it was 2.76 µM; in the test on MOLT-4 leukemia, 4.12 µM; with OVCAR-3 ovarian it was 0.923 µM and 0.163 µM; in the test on SF-539 CNS, 0.997 µM. For the same molecule, the GI50 in the test on SK-MEL-28 melanoma is 5.31 µM and 2.91 µM; in the test on SK-MEL-5 melanoma it was 0.648 µM and 0.177 µM. In addition, the TGI in the test on CAKI-1 renal was 3.43 µM and 4.07 µM; in the test on COLO 205 colon it was 7.68 µM and 10.9 µM; with HT29 colon it was 50 µM; in the test with IGROV1 ovarian it was 0.332 µM; in the test on MOLT-4 leukemia it was 50 µM; with OVCAR-3 ovarian, 2.6 µM and 0.979 µM. Further, the TGI in the test on SF-539 CNS was 2.36 µM; in the test with SK-MEL-2 melanoma, 50 µM and 18.6 µM; with SK-MEL-28 melanoma, 50 µM and 22.6 µM; in the test on SK-MEL-5 melanoma, 1.57 µM and 0.423 µM.
On to `COC(=O)C(C(=O)C(=O)Nc1ccc(C)cc1)c1nc2ccc([N+](=O)[O-])cc2[nH]c1=O` (stereo not drawn), for which the TGI in the test with CAKI-1 renal, in the test with COLO 205 colon, in the test on HT29 colon, in the test on IGROV1 ovarian, with MOLT-4 leukemia and in the test on OVCAR-3 ovarian was > 100 µM in each case. For the same molecule, the TGI with SF-539 CNS, with SK-MEL-2 melanoma, in the test with SK-MEL-28 melanoma and with SK-MEL-5 melanoma was > 100 µM each time.
`O=C(O)C1C2C=CC(O2)C1C(=O)NCc1cccnc1` (stereo not drawn): the TGI with CAKI-1 renal, in the test on COLO 205 colon, in the test on HT29 colon, with IGROV1 ovarian, in the test on MOLT-4 leukemia and in the test on OVCAR-3 ovarian was > 100 µM throughout. Further, the TGI in the test with SF-539 CNS, in the test with SK-MEL-2 melanoma, in the test on SK-MEL-28 melanoma and in the test with SK-MEL-5 melanoma was > 100 µM throughout.
For the molecule `Cc1cc2c(cc1Cl)SC(N(c1ccccc1Cl)S(=O)(=O)c1ccc(Br)s1)=NS2(=O)=O`, the GI50 with CAKI-1 renal is 19.4 µM; in the test with COLO 205 colon, 12.2 µM; with HT29 colon, 19.9 µM; with IGROV1 ovarian, 19.8 µM; in the test on MOLT-4 leukemia it was 15.3 µM; in the test with OVCAR-3 ovarian it was 18.2 µM. Besides, the GI50 with SF-539 CNS is 9.92 µM; in the test on SK-MEL-2 melanoma, 12.8 µM; with SK-MEL-28 melanoma it was 15.2 µM; in the test on SK-MEL-5 melanoma it was 13.8 µM. In addition, the TGI with CAKI-1 renal came out at 48.4 µM; in the test on COLO 205 colon it was 28 µM; with HT29 colon, 41.6 µM; in the test with IGROV1 ovarian it was 89.8 µM; in the test with MOLT-4 leukemia, 42.5 µM; in the test with OVCAR-3 ovarian it was 60.1 µM. Also, the TGI in the test on SF-539 CNS was determined as 23.7 µM; in the test on SK-MEL-2 melanoma, 43.7 µM; in the test with SK-MEL-28 melanoma, 29.6 µM; in the test on SK-MEL-5 melanoma, 26.7 µM.
For `Cc1cc(S(=O)(=O)/N=C(\N)Nc2cccc(O)c2)c(SCc2ccccc2)cc1Cl`, the GI50 in the test with CAKI-1 renal is 16 µM; with COLO 205 colon it was 28.8 µM; in the test with HT29 colon, 20.6 µM; in the test on IGROV1 ovarian, 17.5 µM; in the test on MOLT-4 leukemia, 9.06 µM; in the test on OVCAR-3 ovarian, 10.3 µM. Also, the GI50 was 18 µM with SF-539 CNS, 15.7 µM with SK-MEL-2 melanoma, 14.1 µM in the test on SK-MEL-28 melanoma and 12.1 µM in the test on SK-MEL-5 melanoma. Also, the TGI in the test on CAKI-1 renal was 34.2 µM; in the test with COLO 205 colon, > 100 µM; in the test on HT29 colon, 43.9 µM; with IGROV1 ovarian, 64.8 µM; in the test with MOLT-4 leukemia it was > 100 µM; with OVCAR-3 ovarian, 26.2 µM. Further, the TGI in the test with SF-539 CNS is 38.8 µM; with SK-MEL-2 melanoma, 34.9 µM; with SK-MEL-28 melanoma, 31 µM; in the test on SK-MEL-5 melanoma it was 29.6 µM.
